# Experiments:
# [1] = test system: PC3 (human prostate carcinoma) xenograft; experiment: PC3 tumor xenograft in nude mice; type: in vivo, Balb/c nude mice; conditions: male nude mice, day 17, biweekly i.v.
# Protocol: (§1) LoVo (4 × 10^6), PC3 (3 × 10^6) or MDA-MB-231 LNA DRE (10^6) cells were collected by trypsination and injected with 50 μl 1:1 PBS:Matrigel (v/v) subcutaneously on the right flank of 18 female (LoVo), 40 male (PC3) or into 4th mammary fat pad of 40 female (MDA231) Balb/c nude mice. Tumor growth was monitored and average tumor size at commencement of dosing was 100 mm^3. Mice were randomized into 3 arms of each 5 (LoVo), 10 (PC3) or 12 (MDA23) mice respectively and treatment with vehicle (saline), WEHI-7326 (biweekly) or docetaxel (weekly) was administered via tail vein injection. Tumor volumes were measured at least twice weekly with calipers and the experiments were terminated when tumors in the control group started exceeding 1500 mm^3. For LoVo, both vehicle and 25 mg/kg WEHI-7326 groups were harvested 24 h, but 20 mg/kg WEHI-7326 group harvested 1 h post final dose. For PC3, docetaxel group was not harvested in an attempt to grow out resistant tumors.
# H1437 = experiment: Cell growth inhibition assay, H1437; type: cell-based; conditions: Homo sapiens, NCI-H1437; H1437, non-small cell lung carcinoma; 72 h viability assay, CellTiterGlo; mean of 3 ± SEM; read-out: IC50 (inhibition of cellular proliferation)
# Protocol: (§2) Cells were plated at a density of between 500 to 5000 cells per well for adherent cell lines depending on doubling time, and 15,000 cells per well for lymphoblastic leukemia cell lines, in a 96-well plate in 200 μl of growth media. Plates were incubated overnight at 37 °C before adding the inhibitors. Inhibitors were serially diluted from the stock solutions in complete medium and added to the cells. […] Cell viability was assessed by the AlamarBlue (Invitrogen) or CellTiterBlue/Glo (Promega) method according to manufacturer’s instructions. The curve fits and IC50 values were generated in PRISM (GraphPad, San Diego, CA).
# LIM1899 = experiment: Cell growth inhibition assay, LIM1899; type: cell-based; conditions: Homo sapiens; LIM1899, colon carcinoma; 72 h viability assay, CellTiterGlo; mean of 3 ± SEM; read-out: IC50 (inhibition of cellular proliferation)
# Protocol: as §2
# [2] = Intravenous pharmacokinetics and tolerability in mice; type: in vivo, male Swiss Outbred mice
# Protocol: Briefly, intravenous pharmacokinetics and systemic exposure of WEHI-7326 were assessed in non-fasted male Swiss Outbred mice. WEHI-7326 was administered via intravenous bolus injection (10 ml/kg dose volume) and blood samples were collected at 1, 2, 5, 15 and 30 min and 1, 2, 4, 7.5 and 24 h post-dose (n = 2 mice per time point). A maximum of two samples were obtained from each mouse, with samples being taken either via submandibular bleed (approximately 120 μl; conscious sampling) or terminal cardiac puncture (0.6 ml; while mice were anaesthetized using inhaled Isoflurane). Once collected, blood samples were centrifuged immediately, supernatant plasma was removed, and stored in −20 °C until analysis by LC-MS
# Parameters were calculated with standard calculations: PlasmaCL=DoseIV/AUCIVVSS=AUMCIV/AUCIV*PlasmaCL
# With plasma CL = plasma clearance, AUCIV = area under the plasma concentration vs. time profile, VSS = apparent volume of distribution at steady state, AUMCIV = area under the first moment of the plasma concentration versus time profile from time zero to infinity after IV administration.
# (§3) a Measured physicochemical and solubility data for WEHI-7326. […] Microsomal-predicted EH values are included.
# [3] = test system: LoVo (colon carcinoma) xenograft; experiment: LoVo tumor xenograft in nude mice; type: in vivo, Balb/c nude mice
# Protocol: as §1
# CEM = experiment: Cell growth inhibition assay, CEM; type: cell-based; conditions: Homo sapiens, CCRF-CEM, acute lymphoblastic leukemia, 72 h viability assay, Alamar Blue, mean of 3 ± SEM, read-out: IC50 (inhibition of cellular proliferation)
# Protocol: Cells were plated at a density of between 500 to 5000 cells per well for adherent cell lines depending on doubling time, and 15,000 cells per well for lymphoblastic leukemia cell lines, in a 96-well plate in 200 μl of growth media. Plates were incubated overnight at 37 °C before adding the inhibitors. Inhibitors were serially diluted from the stock solutions in complete medium and added to the cells. Incubation in the presence of inhibitors was continued for […]. Cell viability was assessed by the AlamarBlue (Invitrogen) or CellTiterBlue/Glo (Promega) method according to manufacturer’s instructions. The curve fits and IC50 values were generated in PRISM (GraphPad, San Diego, CA).
# Parental human lymphoblastic leukemia cells (CEM) and their drug resistant derivatives (dEpoB30 and dEpoB300) were cultured in the presence of increasing amounts of WEHI-7326, paclitaxel or epothilone B. Cell survival was determined as described in Experimental Procedures. Shown are mean of 3 experiments +/- SEM. Dose response curves were fitted in PRISM using non-linear regression (4 parameter logistic) to calculate IC50 values.
# [4] = Measured physicochemical and solubility data
# Description: as §3
# [5] = mouse, plasma, iv, male Swiss outbred mice, i.v. 15 mg/kg
smiles,measurement,setting,value
COc1ccc(CNc2nc(NCc3ccc(CN)cc3)nc(NN3CC(=O)NC3=O)n2)cc1 [WEHI-7326],Tumor growth inhibition (TGI),[1],~ 75%
same,IC50,H1437,29.7 ± 10.8 nM
same,IC50,LIM1899,31.3 ± 2.6 nM
same,Adverse reactions,"[2]; Swiss outbred mice, i.v., up to a dose of 30 mg/kg",no adverse reactions or compound-related side effects
same,clearance,[2]; [5],53 mL/min/kg
same,half-life,[2]; [5],6.3 h
same,Vd,"[2]; mouse, plasma, iv, male Swiss outbred mice, i.v. 15 mg/kg, read-out: Apparent volume of distribution",4.7 L/kg
same,Body weight loss,"[3]; LoVo xenograft mice, 25 mg/kg, 9 doses in total",~ 6%
same,Tumor growth inhibition,"[3]; LoVo xenograft, 25 mg/kg biweekly i.v.",60%
same,IC50,CEM,3.99 ± 0.04 nM
same,Lipophilicity,[4],very low
same,Solubility in common dosing vehicles,"[4]; 5% [w/v] glucose, 0.9% [w/v] saline and isotonic acetate buffer pH 5",soluble
same,Stability in dosing vehicles,[4]; storage in common dosing vehicles,negligible degradation

# Source: publication PMC7955127, “Preclinical small molecule WEHI-7326 overcomes drug resistance and elicits response in patient-derived xenograft models of human treatment-refractory tumors” (Cell Death & Disease, 2021)
